Test results published in patent US20090324508A1, “Broad Spectrum and Skin Friendly Disinfecting Composition” (CENTENNIAL VENTURES B.V., priority 2006, published 2009).

Assay: Foam test, dispensing from a foam dispenser
Type: physicochemical
Conditions: in the presence of an alcohol
Description: Preferably, the foam booster used in the composition of the invention provides a stable foam when dispensing a composition consisting of 36% (w/w) ethanol and 0.2% (w/w), preferably 0.3% (w/w), of the foam booster from a foam dispenser with a relatively high air to liquid ratio, preferably an air to liquid ratio of 9-11, more preferably an air to liquid ratio of 11, on an inert and smooth surface at about 20° C. A suitable foam pump is for instance the L11 foam pump from Rexam Airspray, which has an air to liquid ratio of 11, a liquid output volume of 0.75 ml, a stroke of 14.8 mm. The foam is optimally produced by applying regular speed and pressure onto the foam dispenser, as is known to one skilled in the art.
According to this invention, a stable foam is a foam that remains as a foam for at least 5-10 seconds, preferably for at least 10-15 seconds, more preferably for at least 15-20 seconds, even more preferably for at least 20-25 seconds, most preferably for at least 25-30 seconds, as measured immediately after dispensing from a foam dispenser as mentioned above.

Molecule	Foam stability as foam booster
CCCCCCCCCCCCc1ccc(S(=O)(=O)O)cc1 [dodecyl benzene sulphonic acid]	do not provide a stable foam
sodium lauryl ether sulphate	do not provide a stable foam
